# Data as given in patent US7211562B2, “Methods for enhancing the efficacy of cytotoxic agents through the use of HSP90 inhibitors” (Sloan-Kettering Institute for Cancer Research, priority 2000, dated 2007).
# Columns and labels:
# SKBR-3 cells [1] = assay: Confocal microscopy of spindle formation and nuclear fragmentation (Hoechst / anti-tubulin dual stain); assay type: cell-based, human; details: 12 h; for apoptosis / nuclear fragmentation / mitotic spindle formation / mitotic index: SKBr-3, 10 nM Taxol 4 h followed by 50 nM CNF-101 or vehicle
# Procedure: Each experiment was repeated in triplicate.
# The effects of Taxol®, CNF-101 and a combination of the two agents on nuclear fragmentation (a marker of apoptosis) and mitotic spindle formation in SKBR-3 cells were assessed.
# In these sections, 4% of cells were undergoing mitosis and the mitotic cells appeared normal.
# SKBR-3 cells [2] = assay: Cell cycle distribution by DNA content (FACS); assay type: cell-based, human; details: SKBR-3, 10 nM Taxol 4 h, 50 nM CNF-101 12–24 h, or reversed order
# Procedure: Cells were trypsinized and analyzed by DNA content (an indication of cell cycle status) by fluorescent staining and FACS analysis. Cell cycle distribution was assayed according to Nusse et al., 1990, Cytometry, 11: 813, with a Becton Dickinson fluorescence-activated cell sorter and analyzed by Cell Cycle Multi-cycle system (Phoenix Flow System, San Diego, Calif.).
Structure (SMILES),apoptosis / nuclear fragmentation (SKBR-3 cells [1]),mitotic spindle formation / mitotic index (SKBR-3 cells [1]),"cells undergoing mitosis (SKBR-3 cells [1]; SKBr-3, 50 nM CNF-101 alone (or neither drug)) [%]",cell cycle distribution (SKBR-3 cells [2])
"C=CCNC1=C2C[C@@H](C)C[C@H](OC)[C@H](O)[C@@H](C)/C=C(\C)[C@H](OC(N)=O)[C@@H](OC)/C=C\C=C(/C)C(=O)NC(=CC1=O)C2=O [CNF-101, 17-allylamino 17-demethoxygeldanamycin]",no significant apoptosis,no effect on the spindle,4,slightly enhanced the G1 fraction
"CC(=O)O[C@H]1C(=O)[C@@]2(C)[C@H]([C@H](OC(=O)c3ccccc3)[C@]3(O)C[C@H](OC(=O)[C@H](O)[C@@H](NC(=O)c4ccccc4)c4ccccc4)C(C)=C1C3(C)C)[C@]1(OC(C)=O)CO[C@@H]1C[C@@H]2O [Taxol®, paclitaxel]",little evidence of apoptotic nuclear fragmentation,increase in the mitotic index with all the mitotic cells appearing to have damaged spindles,–,massive G2-M arrest
